Experimental data from patent US4246340A, “Method and reagent for bioluminiscence” (LKB-Producter AB, priority 1979, dated 1981).

Legend:
luciferase [1] = target: T1, luciferase (Photinus pyralis, UniProt P08659); experiment: Inhibition of the luciferase reaction (literature Ki values); type: biochemical; settings: if 10^-6 M ATP generated 10^-6 M AMP; estimated from Ki; 1 µM
Text: To the extent free AMP and free oxluciferin are formed in the reaction it could also be of interest to study whether this would affect the product inhibition. […] Consequently it may under certain conditions be important to counteract the effect of the generation of free oxyluciferin. The addition of D-luciferin analog makes the initial inhibition of the luciferase so big that the additional inhibition from the oxyluciferin, which is continuously formed during the reaction, will be negligible. The addition of inhibiting concentrations of a D-luciferin analog will thus stabilize the light level.

luciferase [2] = target: T1, luciferase; settings: inhibition of luciferase; literature value; cited from earlier work

T1 sequence (P08659 whole entry): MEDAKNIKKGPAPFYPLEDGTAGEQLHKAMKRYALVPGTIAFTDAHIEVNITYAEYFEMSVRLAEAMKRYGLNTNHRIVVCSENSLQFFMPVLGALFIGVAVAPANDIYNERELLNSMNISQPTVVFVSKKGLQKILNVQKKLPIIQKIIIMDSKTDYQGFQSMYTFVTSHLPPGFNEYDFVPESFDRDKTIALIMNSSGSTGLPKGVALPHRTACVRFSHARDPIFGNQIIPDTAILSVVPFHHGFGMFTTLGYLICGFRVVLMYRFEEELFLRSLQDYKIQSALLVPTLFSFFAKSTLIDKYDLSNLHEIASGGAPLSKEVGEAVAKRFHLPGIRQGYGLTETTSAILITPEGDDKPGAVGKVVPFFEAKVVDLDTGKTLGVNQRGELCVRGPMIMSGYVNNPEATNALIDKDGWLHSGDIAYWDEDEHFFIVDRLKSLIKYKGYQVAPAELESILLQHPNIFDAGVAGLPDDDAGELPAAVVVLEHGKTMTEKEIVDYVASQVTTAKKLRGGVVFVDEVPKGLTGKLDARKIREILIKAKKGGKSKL

effect on the luciferase activity (luciferase [1]) | Compound | Ki (luciferase [2])
less than 0.5% | Nc1ncnc2c1ncn2[C@@H]1O[C@H](COP(=O)(O)O)[C@@H](O)[C@H]1O [AMP, adenosinel monophosphate] | 240 µM
 | O=C1CSC(c2nc3ccc(O)cc3s2)=N1 [oxyluciferin] | 0.23 µM
